Experimental data from PubChem BioAssay AID280 (DTP/NCI, 2004).
Where “and” joins values, the source holds several entries; their conditions need not be identical. Equal values may be shown once. Toxic doses and inconclusive results are not listed.

Tested on: nude mice, LOX melanoma ip, survival T/C
Test: NCI In Vivo Anticancer Drug Screen. Data for tumor model Human Amelanotic Melanoma (LOX) (intraperitoneal) in NU/NU BALB/C (nude) mice
Settings: endpoint: median survival time, higher = longer survival
Description: The antitumor activity of compounds was measured in mice bearing transplantable tumors. Survival or tumor size were measured and the results are expressed as the measurement made in the treated group (T) divided by the measurement made in the vehicle treated control group (C). The tumor model used in this assay is Human Amelanotic Melanoma (LOX) (intraperitoneal) in NU/NU BALB/C (nude) mice

[1] = dose: 25.0 mg/kg/injection, schedule: Q04DX003 (ip), vehicle: water
[2] = dose: 50.0 mg/kg/injection, schedule: Q04DX003 (ip), vehicle: water
[3] = dose: 25.0 mg/kg/injection, schedule: Q04DX003 (ip), vehicle: saline with Tween-80
[4] = dose: 50.0 mg/kg/injection, schedule: Q04DX003 (ip), vehicle: saline with Tween-80
[5] = dose: 75.0 mg/kg/injection, schedule: Q04DX003 (ip), vehicle: saline with Tween-80
[6] = dose: 150.0 mg/kg/injection, schedule: Q04DX003 (ip), vehicle: saline with Tween-80
[7] = dose: 300.0 mg/kg/injection, schedule: Q04DX003 (ip), vehicle: saline with Tween-80
[8] = dose: 37.5 mg/kg/injection, schedule: Q04DX003 (ip), vehicle: saline with Tween-80
[9] = dose: 16.0 mg/kg/injection, schedule: Q04DX003 (ip), vehicle: water
[10] = dose: 32.0 mg/kg/injection, schedule: Q04DX003 (ip), vehicle: water
[11] = dose: 30.0 mg/kg/injection, schedule: Q04DX003 (ip), vehicle: saline
[12] = dose: 60.0 mg/kg/injection, schedule: Q04DX003 (ip), vehicle: saline

Compound: CC1(O)C=CC(=O)C=C1
- T/C (dose: 6.25 mg/kg/injection, schedule: Q04DX003 (ip), vehicle: water): 108 % of control
- T/C (dose: 12.5 mg/kg/injection, schedule: Q04DX003 (ip), vehicle: water): 101 % of control
- T/C [1]: 105 % of control
- T/C [2]: 111 % of control

Compound: CC[C@@]1(O)C(=O)OCc2c1cc1n(c2=O)Cc2cc3ccccc3nc2-1
- T/C (dose: 5.0 mg/kg/injection, schedule: Q04DX003 (ip), vehicle: saline with Tween-80): 284 % of control

Compound: CC(=O)C[n+]1ccc(C)cc1Sc1ccccc1C
- T/C (dose: 12.5 mg/kg/injection, schedule: Q04DX003 (ip), vehicle: saline with Tween-80): 93 % of control
- T/C [3]: 99 % of control
- T/C [4]: 95 % of control
- T/C (dose: 100.0 mg/kg/injection, schedule: Q04DX003 (ip), vehicle: saline with Tween-80): 88 % of control

Compound: CC(C)NC(=O)OCc1c(COC(=O)NC(C)C)c(-c2ccc(Cl)c(Cl)c2)n2c1CCC2
- T/C [5]: 238 % of control
- T/C (dose: 75.0 mg/kg/injection, schedule: Q04DX003 (ip), vehicle: saline): 152 % of control
- T/C [6]: 324 % of control
- T/C (dose: 150.0 mg/kg/injection, schedule: Q04DX003 (ip), vehicle: saline): 210 % of control
- T/C [7]: 313 % of control
- T/C (dose: 300.0 mg/kg/injection, schedule: Q04DX003 (ip), vehicle: saline): 178 % of control
- T/C (dose: 600.0 mg/kg/injection, schedule: Q04DX003 (ip), vehicle: saline): 344 % of control
- T/C (dose: 1200.0 mg/kg/injection, schedule: Q04DX003 (ip), vehicle: saline): 344 % of control

Compound: Cc1c(O)/c(=C\O)c2nc3c(=O)ccc(C(=O)NCCN(C)C)c3[nH]c2c1=O
- T/C [1]: 95 % of control and 97 % of control
- T/C [2]: 104 % of control and 98 % of control
- T/C (dose: 86.4 mg/kg/injection, schedule: Q04DX003 (ip), vehicle: water): 95 % of control
- T/C (dose: 100.0 mg/kg/injection, schedule: Q04DX003 (ip), vehicle: water): 101 % of control and 104 % of control
- T/C (dose: 144.0 mg/kg/injection, schedule: Q04DX003 (ip), vehicle: water): 99 % of control

Compound: COC12[C@@H]3N[C@@H]3CN1C1=C(C(=O)C(NCCSSCCNC3=C(C)C(=O)C4=C(C3=O)C(COC(N)=O)[C@]3(OC)C5N[C@@H]5CN43)=C(C)C1=O)[C@@H]2COC(N)=O (stereo partly drawn)
- T/C (dose: 1.57 mg/kg/injection, schedule: Q04DX003 (ip), vehicle: DMSO): 121 % of control
- T/C (dose: 12.5 mg/kg/injection, schedule: Q04DX003 (ip), vehicle: DMSO): 331 % of control

Compound: CC1Oc2cc3c(-c4c(O)cc(O)c5c(O)c6c(cc45)OC(C)C(C)C6=O)c(O)cc(O)c3c(O)c2C(=O)C1C (stereo not drawn)
- T/C (dose: 1.0 mg/kg/injection, schedule: Q04DX003 (ip), vehicle: suspension in saline): 124 % of control
- T/C (dose: 4.0 mg/kg/injection, schedule: Q04DX003 (ip), vehicle: suspension in saline): 152 % of control

Compound: COc1cc2c(cc1OC)[C@@H]1C(=O)c3ccc4c(c3O[C@@H]1CO2)C[C@H](C(C)C)O4
- T/C (dose: 18.75 mg/kg/injection, schedule: Q04DX003 (ip), vehicle: Klucel (hydroxypropylcellulose) (HPC)): 113 % of control
- T/C (dose: 37.5 mg/kg/injection, schedule: Q04DX003 (ip), vehicle: Klucel (hydroxypropylcellulose) (HPC)): 110 % of control

Compound: CCCCCCNc1nc(NCCCCCC)c2[nH]c(NCCCCCC)nc2n1
- T/C [8]: 123 % of control
- T/C [6]: 122 % of control

Compound: CC(/C=C/C=C/C=C/C=C/C=C/C(O)=C1/C(=O)C(CCC(=O)O)N(C)C1=O)=C\C(C)C(OC1CC(O)C(O)C(C)O1)C(C)C (stereo not drawn)
- T/C (dose: 8.3 mg/kg/injection, schedule: Q04DX003 (ip), vehicle: water): 114 % of control
- T/C (dose: 13.8 mg/kg/injection, schedule: Q04DX003 (ip), vehicle: water): 114 % of control
- T/C [9]: 150 % of control
- T/C [10]: 168 % of control
- T/C (dose: 107.0 mg/kg/injection, schedule: Q04DX003 (ip), vehicle: water): 116 % of control

Compound: CCCCCC1c2cc(O)ccc2OC1N1CCOCC1 (stereo not drawn)
- T/C [3]: 111 % of control
- T/C [4]: 100 % of control
- T/C (dose: 200.0 mg/kg/injection, schedule: Q04DX003 (ip), vehicle: saline with Tween-80): 86 % of control

Compound: O=C(Nc1cc(Cl)ccc1C(=O)O)c1cccc(C[n+]2ccccc2)c1
- T/C [8]: 94 % of control and 100 % of control
- T/C [5]: 105 % of control and 90 % of control
- T/C [7]: 89 % of control

Compound: CN=C(N)N/N=C(\C)c1ccc2sc3ccc(/C(C)=N/NC(N)=NC)cc3c2c1
- T/C [8]: 121 % of control
- T/C [5]: 117 % of control
- T/C [7]: 182 % of control
- T/C (dose: 600.0 mg/kg/injection, schedule: Q04DX003 (ip), vehicle: saline with Tween-80): 116 % of control

Compound: CCC1OC(OC)C=CC1=O (stereo not drawn)
- T/C (dose: 25.0 mg/kg/injection, schedule: Q04DX003 (ip), vehicle: suspension in saline): 96 % of control
- T/C (dose: 50.0 mg/kg/injection, schedule: Q04DX003 (ip), vehicle: suspension in saline): 104 % of control
- T/C (dose: 100.0 mg/kg/injection, schedule: Q04DX003 (ip), vehicle: suspension in saline): 113 % of control

Compound: O=c1[nH]cnc2c1nnn2C1OC(CO)C(O)C1O (stereo not drawn)
- T/C (dose: 180.0 mg/kg/injection, schedule: Q04DX003 (ip), vehicle: suspension in saline): 123 % of control
- T/C (dose: 833.0 mg/kg/injection, schedule: Q04DX003 (ip), vehicle: suspension in saline): 153 % of control

Compound: O=c1[nH]cc(F)c(=O)[nH]1
- T/C (dose: 5.0 mg/kg/injection, schedule: Q01DX005 (ip), vehicle: saline): 123 % of control
- T/C (dose: 5.0 mg/kg/injection, schedule: Q01DX015 (ip), vehicle: saline): 115 % of control
- T/C (dose: 10.0 mg/kg/injection, schedule: Q01DX015 (ip), vehicle: saline): 224 % of control
- T/C (dose: 10.0 mg/kg/injection, schedule: Q04DX003 (ip), vehicle: saline): 163 % of control
- T/C (dose: 15.0 mg/kg/injection, schedule: Q04DX003 (ip), vehicle: saline): 108 % of control
- T/C (dose: 20.0 mg/kg/injection, schedule: Q01DX005 (ip), vehicle: saline): 166 % of control
- T/C (dose: 20.0 mg/kg/injection, schedule: Q01DX015 (ip), vehicle: saline): 211 % of control
- T/C (dose: 20.0 mg/kg/injection, schedule: Q04DX003 (ip), vehicle: saline): 191 % of control
- T/C [11]: 179 % of control
- T/C (dose: 40.0 mg/kg/injection, schedule: Q01DX005 (ip), vehicle: saline): 160 % of control
- T/C [12]: 185 % of control

Compound: CN(C)/N=N/c1nc[nH]c1C(N)=O
- T/C (dose: 100.0 mg/kg/injection, schedule: Q04DX003 (ip), vehicle: Klucel (hydroxypropylcellulose) (HPC)): 107 % of control

Compound: COc1ccc2[nH]c3ccc4cc[n+](CCN5CCC(C6CCN(CC[n+]7ccc8ccc9[nH]c%10ccc(OC)cc%10c9c8c7)CC6)CC5)cc4c3c2c1
- T/C (dose: 4.0 mg/kg/injection, schedule: Q04DX003 (ip), vehicle: water): 153 % of control
- T/C (dose: 13.7 mg/kg/injection, schedule: Q04DX003 (ip), vehicle: water): 156 % of control
- T/C [9]: 176 % of control
- T/C (dose: 22.8 mg/kg/injection, schedule: Q04DX003 (ip), vehicle: water): 176 % of control
- T/C (dose: 23.04 mg/kg/injection, schedule: Q04DX003 (ip), vehicle: water): 203 % of control
- T/C [10]: 187 % of control
- T/C (dose: 38.0 mg/kg/injection, schedule: Q04DX003 (ip), vehicle: water): 207 % of control
- T/C (dose: 38.4 mg/kg/injection, schedule: Q04DX003 (ip), vehicle: water): 223 % of control
- T/C (dose: 64.0 mg/kg/injection, schedule: Q04DX003 (ip), vehicle: water): 192 % of control

Compound: CCCSc1nc(COC(=O)NC)c(COC(=O)NC)n1C
- T/C [11]: 113 % of control
- T/C [12]: 110 % of control
- T/C (dose: 120.0 mg/kg/injection, schedule: Q04DX003 (ip), vehicle: saline): 90 % of control
- T/C (dose: 240.0 mg/kg/injection, schedule: Q04DX003 (ip), vehicle: saline): 98 % of control

Compound: Cc1c2ccccc2c(C)c2c1cc(C(=O)O)c1ccccc12
- T/C (dose: 12.5 mg/kg/injection, schedule: Q04DX003 (ip), vehicle: sodium bicarbonate): 115 % of control
- T/C (dose: 25.0 mg/kg/injection, schedule: Q04DX003 (ip), vehicle: sodium bicarbonate): 118 % of control
- T/C (dose: 200.0 mg/kg/injection, schedule: Q04DX003 (ip), vehicle: sodium bicarbonate): 167 % of control
